The assay deals with Sprague Dawly rats. The assay is described as follows: Fat-Binding Evaluation via Paper Staining. Format: in vivo. The note with it: male rats, chow diet with 15 percent lard; lipase inhibitor (Orlistat) 0.04 percent by weight, no polymer; average of 24 experiments.

One compound from patent US7048917B1, “Fat-binding polymers” (Genzyme Corporation, priority 1998, dated 2006) can be followed below.

Each structure is given as a SMILES string.

Procedure: The model consists of male, Sprague Dawly rats, 160 g, housed individually in wire mesh cages. They were acclimated to the facility for six days, during which time they were fed a chow based diet supplemented with 15 percent lard by weight. Feed and water were provided ad libitum. The animals were then randomly assigned to groups of four and fed test diets for three days. The test diet was also a chow based feed. A lipase inhibitor (Orlistat) was added at 0.04 percent by weight and the polymer was added at 0.30 percent by weight. They were mixed in the feed as a powder followed by the addition of the supplemented fat in the form of lard at 15 percent by weight. During the final 24 hours of the treatment period an 8.5″×11″ sheet of white paper was placed beneath each cage. One inch squares were drawn on the paper creating a grid of 80 squares. When oil in the form of unabsorbed dietary triglyceride seeps from the stool, it stains the paper. This can be readily discerned from urine if the papers were allowed to dry for six hours. The oil stains confer translucence to the paper. The squares that contain these oil stains were counted and expressed as a percentage of total area stained.

Turning to `CCCCCCCCCCC[C@@H](C[C@@H]1OC(=O)[C@H]1CCCCCC)OC(=O)[C@H](CC(C)C)NC=O` [Control 2, Orlistat], the “Percentage of Paper Stained” value was 39 ± 6%.
